Common to all, as to format: in vivo, Rag 1−/− immunodeficient mice
In one test the test system is CD4+Foxp3+ Treg cells. Description: Flow cytometry of regulatory T cells in colon lamina propria lymphocytes, T cell transfer colitis model. The settings on record: JCM-16021 2.0 g/kg; IFLX 5 mg/kg; FACS, FIG. 4B. As for the experimental part:
After dissecting and isolating the colon from mice, it was washed four times in ice-cold PBS (137 mM NaCl, 2.7 mM KCl, 10 mM Na2HPO4, 1.8 mM KH2PO4, pH 7.4) and then cut into approximately 1 cm long fragments. Intestinal epithelial cells and lamina propria were separated by vigorous shaking in HBSS buffer containing 2 mM EDTA at 37° C. for 30 minutes. Intestinal epithelial cells were collected by centrifugation at 1,000 rpm at 4° C. The remaining colon tissue was incubated with digestion buffer (DMEM medium, 5% fetal calf serum, 1 mg/mL collagenase IV and DNAse I) at 37° C. with shaking for 40 minutes to separate colon lamina propria lymphocytes. The digested colon tissue cell suspension was filtered through a 70 micron cell filter and centrifuged. […]
Colon lamina propria lymphocytes were diluted to 1×10^5 cells/mL and subjected to intracellular staining after fixation and permeabilization. Cells were stained with a primary antibody diluted 1:100 at 4° C. in the dark for 30 minutes and analyzed by flow cytometry using antibodies against CD3 (APC, BD Biosciences), CD4 (FITC, BD Biosciences), and Foxp3 (PE, BD Biosciences). Analysis was performed using a BD LSRFortessa™ flow cytometer (BD Biosciences) and data obtained was analyzed using FlowJo software. […]
In general terms: Flow cytometry measures light scatter and fluorescence of single cells or particles in a stream.

Another test deals with Tnf-α and Mcp-1 mRNA. Briefly: qRT-PCR of colon tissue, T cell transfer colitis model. As for the experimental part: Total RNA was extracted from tissues using Trizol reagent (Invitrogen) and reverse transcribed into cDNA using cDNA synthesis kit (Bio-Rad Laboratories). The cDNA was diluted 50-fold as a template for qRT-PCR. According to the kit instructions mRNA expression levels were detected using SYBR Green fluorescent probe. Primers used for qRT-PCR are: Tnf-α, forward primer 5′-[…]-3′ (SEQ ID NO:1), reverse primer 5′-[…]-3′ (SEQ ID NO:2); Mcp-1, forward primer 5′-[…]-3′ (SEQ ID NO:3), reverse primer 5′-[…]-3′ (SEQ ID NO:4); 18S rRNA, forward primer 5′-[…]-3′ (SEQ ID NO:5), reverse primer 5′-[…]-3′ (SEQ ID NO:6).
(§1) CD4^+ naive T cells were isolated and purified from the spleens of wild-type C57BL/6J mice using a naive CD4+ T cell isolation kit (#130-104-453, Miltenyi Biotech) according to the manufacturer's recommendations. The isolated CD4^+ naive T cells were incubated with antibodies against CD4 (#100406, BioLegend), CD25 (#17025182, eBiosciences) and CD45RB (#103314, BioLegend) and purity was analyzed by BD Fortessa flow cytometer (BD Biosciences). 4×10^5 CD4^+ naive T cells were intraperitoneally injected into Rag 1^−/− immunodeficient mice. Clinical symptoms of colitis including fecal occult blood, loose stool/diarrhea, rough/hunched posture and weight loss were monitored every three days thereafter. […]
For orientation: In qPCR the cycle at which signal appears reflects the starting amount.

For test [1], the system named is ulcerative colitis induced by CD4+ naive T cell transfer. Briefly: CD4+ naive T cell transfer-induced ulcerative colitis model: fecal occult blood, pathological index, H&E/PAS histology.
Text: Day one of the experiment is defined as i) adoptive transfer of […] CD4^+ T cells to Rag 1^−/− mice or ii) first day of DSS administration. JCM-16021 was orally administered to mice (weighing approximately 22-24 grams) at doses of 1.0 and 2.0 g/kg. Body weight and fecal bleeding were monitored every three days. Mice were euthanized and serum, colon tissue, spleen, mesenteric lymph nodes and feces were collected for further analysis.
Fecal occult blood test kit was purchased from Nanjing Jiancheng Bioengineering Institute and performed according to the kit instructions.
Histological staining, PAS staining, immunohistochemical staining and immunofluorescent staining: • At the end of the experiment, mouse colon tissue was preserved using 4% paraformaldehyde fixed at 4° C. for 2 hours and embedded in paraffin. After dewaxing, mouse colon tissue sections were washed with PBS and blocked with 3% H2O2. Tissue sections were then blocked with blocking solution (10% horse serum, 0.1% bovine serum albumin, 0.2% gelatin) at room temperature for 1 hour to block non-specific sites. […]
Histological grading of colitis were analyzed based on inflammatory features, extent, regeneration, crypt damage and percentage in hematoxylin-eosin and periodic acid-Schiff stained colon sections. Colitis scores will be determined by two independent researchers blinded to animal treatment.
as §1, with “4×10^5 CD4^+ naive T cells were intraperitoneally injected into Rag 1^−/− immunodeficient mice.” left out

Take infliximab [IFLX]: the “ratio of CD4+Foxp3+ Treg cells in isolated LPMC” value in the test with CD4+Foxp3+ Treg cells was “similar”. Also, the “expression level of Tnf-α mRNA in colon tissue” value in the test with Tnf-α and Mcp-1 mRNA (FIG. 2B) is “significantly reduced”. For the same substance, the “expression level of Mcp-1 mRNA in colon tissue” value in the test on Tnf-α and Mcp-1 mRNA (FIG. 2C) is reported as “significantly reduced”. Moreover, the fecal occult blood entry in test [1] (JCM-16021 1.0 and 2.0 g/kg oral twice daily for three weeks, IFLX 5 mg/kg once weekly, FIG. 1C) is recorded as “did not exhibit similar activity”. The “ulcerative colitis pathological index” value in test [1] (JCM-16021 1.0 and 2.0 g/kg oral twice daily for three weeks, IFLX 5 mg/kg once weekly, FIG. 1D) is “did not exhibit similar activity”. In addition, the “overall therapeutic efficacy (comparison of doses and with IFLX)” value in test [1] (JCM-16021 2.0 g/kg vs 1.0 g/kg, infliximab 5 mg/kg under the same experimental conditions) was “less effective than JCM-16021”.

(Values after US20230381257A1, “HERBAL COMPOSITION JCM-16021 AS TREATMENT FOR INFLAMMATORY BOWEL DISEASE” (Hong Kong Baptist University, priority 2022, published 2023).)
